According to patent publication US10328093B2, “Anthracycline formulations” (CYTRX CORPORATION, priority 2012, dated 2019):

Experiments:
advanced cancer patients = details: Phase 1, 41 advanced cancer patients, cited from earlier work
[1] = IV bag solution stability study of DOXO-EMCH API (0.9% NaCl, D5W, LR); type: physicochemical; details: for solubility: ~2 mg/mL
Description: To analyze DOXO-EMCH's behavior in solution, a reversed-phase (RP) HPLC method for quantitation of DOXO-EMCH and various impurities and degradation products was utilized. Samples (1.0 μL injection volume) were assayed on an HPLC system fitted with a Phenomenex Gemini C18 column 100×2.0 mm, 3 μm at a flow rate of 0.3 mL/min. The mobile phase used was an acetate/acetonitrile gradient. The degradation product EMCH could not be detected using the above HPLC method, and was therefore determined using a liquid chromatography-mass spectrometry (LC-MS) method.
To obtain baseline data on the stability of DOXO-EMCH at the point of use, a study was designed to determine degradation of DOXO-EMCH when combined with candidate intravenous (IV) bag solutions. IV bag solutions including Dextrose 5% in Water (D5W), Lactated Ringers (LR), and Sodium Chloride Solution 0.9% (Normal Saline; NS) were used. 100 mg of DOXO-EMCH active pharmaceutical ingredient (API) were dissolved in 50 mL of the IV bag solution for a concentration of ˜2 mg/mL DOXO-EMCH API. The IV bag solutions containing API were then aliquoted in glass vials. The vials were stored at 25° C. in a stability chamber for the length of the experiment. Prior to the beginning of the IV bag stability study, all IV bag solutions were tested for pH and the presence of any peaks interfering with DOXO-EMCH or any degradation peaks of interest. Samples were pulled at 0 hr, 2 hr, 4 hr, and 6 hr time intervals and tested for pH and in duplicate by HPLC.
Tables 8-10 below list the results for the IV bag study using 0.9% NaCl, D5W, and Lactated Ringer's Solution. In summary, the 0.9% NaCl and Lactated Ringer's solutions met the goal of less than 3% doxorubicin over 3-5 hours. […] The sample was opaque and precipitated material visibly settled over a 2-hour period. […] The samples were mixed well before dilution of each sample for HPLC assay, but non-homogeneity of these samples is reflected in the DOXO-EMCH recovery values for those two IV bag solutions. […] The pH for D5W was the lowest of all the IV bag solutions tested.

[2] = ~2 mg/mL API in 0.9% NaCl IV solution, 25° C., 0 hr
[3] = ~2 mg/mL API in 0.9% NaCl IV solution, 25° C., 2 hr
[4] = ~2 mg/mL API in 0.9% NaCl IV solution, 25° C., 4 hr
[5] = ~2 mg/mL API in 0.9% NaCl IV solution, 25° C., 6 hr
[6] = ~2 mg/mL API in D5W IV solution, 25° C., 0 hr
[7] = ~2 mg/mL API in D5W IV solution, 25° C., 2 hr
[8] = ~2 mg/mL API in D5W IV solution, 25° C., 4 hr
[9] = ~2 mg/mL API in D5W IV solution, 25° C., 6 hr
[10] = ~2 mg/mL API in LR IV solution, 25° C., 0 hr
[11] = ~2 mg/mL API in LR IV solution, 25° C., 2 hr
[12] = ~2 mg/mL API in LR IV solution, 25° C., 4 hr
[13] = ~2 mg/mL API in LR IV solution, 25° C., 6 hr

Structure (SMILES): COc1cccc2c1C(=O)c1c(O)c3c(c(O)c1C2=O)C[C@@](O)(/C(CO)=N/NC(=O)CCCCCN1C(=O)C=CC1=O)C[C@@H]3O[C@H]1C[C@H](N)[C@H](O)[C@H](C)O1.Cl [DOXO-EMCH]
- tumor response (advanced cancer patients; in some cases): induced tumor regression
- clinical safety (advanced cancer patients): safe for clinical use
- doxorubicin over 3-5 hours (goal) ([1]; 0.9% NaCl IV solution, 25° C.): less than 3%
- degradation over a 6 hour period ([1]; D5W solution, 25° C.): significant degradation of DOXO-EMCH and formation of doxorubicin
- doxorubicin over 3-5 hours (goal) ([1]; Lactated Ringer's solution, 25° C.): less than 3%
- solubility ([1]; in 0.9% NaCl): not completely soluble
- solubility ([1]; in D5W): completely soluble
- solubility ([1]; in Lactated Ringer's): not completely soluble
- Doxorubicin [1, 2]: 0.3 wt %
- pH [1, 2]: 6.5
- Doxorubicin [1, 3]: 0.9 wt %
- pH [1, 3]: 6.0
- Doxorubicin [1, 4]: 2.1 wt %
- pH [1, 4]: 5.6
- Doxorubicin [1, 5]: 2.6 wt %
- pH [1, 5]: 5.7
- Doxorubicin [1, 6]: 1.6 wt %
- pH [1, 6]: 5.5
- Doxorubicin [1, 7]: 5.8 wt %
- pH [1, 7]: 5.0
- Doxorubicin [1, 8]: 11.2 wt %
- pH [1, 8]: 4.9
- Doxorubicin [1, 9]: 16.8 wt %
- pH [1, 9]: 4.8
- Doxorubicin [1, 10]: 0.2 wt %
- pH [1, 10]: 6.3
- Doxorubicin [1, 11]: 0.5 wt %
- pH [1, 11]: 6.1
- Doxorubicin [1, 12]: 0.9 wt %
- pH [1, 12]: 6.0
- Doxorubicin [1, 13]: 1.6 wt %
- pH [1, 13]: 5.9
